# Source: patent US11028080B2, “Substituted pyrimidines as LRKK2 inhibitors” (Denali Therapeutics Inc., priority 2016, dated 2021)
# Biological target: LRRK2 G2019S enzyme (Homo sapiens (Human), UniProt Q5S007, G2019S)
# Assay: LRRK2 G2019S biochemical TR-FRET assay (LRRKtide substrate)
# Settings: 5 nM LRRK2, 134 μM ATP, 60 minute reaction time, 23° C.
# Experimental: Materials: • LRRK2 G2019S enzyme • Substrate (LRRKtide) • ATP • TR-FRET dilution buffer • pLRRKtide antibody • 384-well assay plate • DMSO • Enzyme reaction conditions • 50 mM Tris pH 7.5, 10 mM MgCl2, 1 mM EGTA, 0.01% Brij-35, 2 mM DTT • 5 nM LRRK2 • 134 μM ATP • 60 minute reaction time • 23° C. reaction temperature • 10 μL total reaction volume
# Detection reaction conditions • 1×TR-FRET dilution buffer • 10 mM EDTA • 2 nM antibody • 23° C. reaction temperature • 10 μL total reaction volume
# Compounds were prepared by initially diluting to 1 mM with DMSO. 35 μL of reference compound solution, 35 μL of test compound solution, and 35 μL HPE were successively added to the source plate (384-well assay plate, Labcyte). The plates were centrifuged at 2500 rpm for 1 minute and sealed in foil. POD was used to perform a 3.162 fold serial dilution and 100 nL of reference compound solution, test compound solution, HPE and ZPE were transferred to assay plates. The assay plate was centrifuged at 2500 rpm for 1 minute, and sealed with foil.
# To perform the enzyme reaction, 5 μL of LRRKtide substrate and kinase mixture in assay buffer was added to all wells of the assay plate. The plate was centrifuged to concentrate the mixture at the bottom of the wells. The assay plate was incubated at 23° C. for 20 minutes. Following incubation, 5 μL of 2×ATP in assay buffer was added to each well, and plates were centrifuged to concentrate the mixture at the bottom of the wells. The plate was incubated at 23° C. for 60 minutes.
# To perform the detection of the reaction, EDTA completely mixed in TR-FRET dilution buffer was added to antibody reagent. 10 μL of detection reagent was added to all wells of each well of the assay plate and the plate was centrifuged to concentrate the mixture at the bottom of the wells. The plate was then incubated at 23° C. for 60 minutes. Plates were read on Perkin Elmer Envision 2104 instrument in TR-FRET mode using a 340 nm excitation filter, 520 nm fluorescence emission filter, and 490 or 495 nm terbium emission filter.
# In the table below, activity is provided as follows: In the table below, activity is provided as follows: +++=IC50 less than 30 nM; ++=IC50 between 30 nM and 60 nM; +=IC50 greater than 60 nM.
# LRRK2 G2019S enzyme, sequence (Q5S007 whole entry G2019S): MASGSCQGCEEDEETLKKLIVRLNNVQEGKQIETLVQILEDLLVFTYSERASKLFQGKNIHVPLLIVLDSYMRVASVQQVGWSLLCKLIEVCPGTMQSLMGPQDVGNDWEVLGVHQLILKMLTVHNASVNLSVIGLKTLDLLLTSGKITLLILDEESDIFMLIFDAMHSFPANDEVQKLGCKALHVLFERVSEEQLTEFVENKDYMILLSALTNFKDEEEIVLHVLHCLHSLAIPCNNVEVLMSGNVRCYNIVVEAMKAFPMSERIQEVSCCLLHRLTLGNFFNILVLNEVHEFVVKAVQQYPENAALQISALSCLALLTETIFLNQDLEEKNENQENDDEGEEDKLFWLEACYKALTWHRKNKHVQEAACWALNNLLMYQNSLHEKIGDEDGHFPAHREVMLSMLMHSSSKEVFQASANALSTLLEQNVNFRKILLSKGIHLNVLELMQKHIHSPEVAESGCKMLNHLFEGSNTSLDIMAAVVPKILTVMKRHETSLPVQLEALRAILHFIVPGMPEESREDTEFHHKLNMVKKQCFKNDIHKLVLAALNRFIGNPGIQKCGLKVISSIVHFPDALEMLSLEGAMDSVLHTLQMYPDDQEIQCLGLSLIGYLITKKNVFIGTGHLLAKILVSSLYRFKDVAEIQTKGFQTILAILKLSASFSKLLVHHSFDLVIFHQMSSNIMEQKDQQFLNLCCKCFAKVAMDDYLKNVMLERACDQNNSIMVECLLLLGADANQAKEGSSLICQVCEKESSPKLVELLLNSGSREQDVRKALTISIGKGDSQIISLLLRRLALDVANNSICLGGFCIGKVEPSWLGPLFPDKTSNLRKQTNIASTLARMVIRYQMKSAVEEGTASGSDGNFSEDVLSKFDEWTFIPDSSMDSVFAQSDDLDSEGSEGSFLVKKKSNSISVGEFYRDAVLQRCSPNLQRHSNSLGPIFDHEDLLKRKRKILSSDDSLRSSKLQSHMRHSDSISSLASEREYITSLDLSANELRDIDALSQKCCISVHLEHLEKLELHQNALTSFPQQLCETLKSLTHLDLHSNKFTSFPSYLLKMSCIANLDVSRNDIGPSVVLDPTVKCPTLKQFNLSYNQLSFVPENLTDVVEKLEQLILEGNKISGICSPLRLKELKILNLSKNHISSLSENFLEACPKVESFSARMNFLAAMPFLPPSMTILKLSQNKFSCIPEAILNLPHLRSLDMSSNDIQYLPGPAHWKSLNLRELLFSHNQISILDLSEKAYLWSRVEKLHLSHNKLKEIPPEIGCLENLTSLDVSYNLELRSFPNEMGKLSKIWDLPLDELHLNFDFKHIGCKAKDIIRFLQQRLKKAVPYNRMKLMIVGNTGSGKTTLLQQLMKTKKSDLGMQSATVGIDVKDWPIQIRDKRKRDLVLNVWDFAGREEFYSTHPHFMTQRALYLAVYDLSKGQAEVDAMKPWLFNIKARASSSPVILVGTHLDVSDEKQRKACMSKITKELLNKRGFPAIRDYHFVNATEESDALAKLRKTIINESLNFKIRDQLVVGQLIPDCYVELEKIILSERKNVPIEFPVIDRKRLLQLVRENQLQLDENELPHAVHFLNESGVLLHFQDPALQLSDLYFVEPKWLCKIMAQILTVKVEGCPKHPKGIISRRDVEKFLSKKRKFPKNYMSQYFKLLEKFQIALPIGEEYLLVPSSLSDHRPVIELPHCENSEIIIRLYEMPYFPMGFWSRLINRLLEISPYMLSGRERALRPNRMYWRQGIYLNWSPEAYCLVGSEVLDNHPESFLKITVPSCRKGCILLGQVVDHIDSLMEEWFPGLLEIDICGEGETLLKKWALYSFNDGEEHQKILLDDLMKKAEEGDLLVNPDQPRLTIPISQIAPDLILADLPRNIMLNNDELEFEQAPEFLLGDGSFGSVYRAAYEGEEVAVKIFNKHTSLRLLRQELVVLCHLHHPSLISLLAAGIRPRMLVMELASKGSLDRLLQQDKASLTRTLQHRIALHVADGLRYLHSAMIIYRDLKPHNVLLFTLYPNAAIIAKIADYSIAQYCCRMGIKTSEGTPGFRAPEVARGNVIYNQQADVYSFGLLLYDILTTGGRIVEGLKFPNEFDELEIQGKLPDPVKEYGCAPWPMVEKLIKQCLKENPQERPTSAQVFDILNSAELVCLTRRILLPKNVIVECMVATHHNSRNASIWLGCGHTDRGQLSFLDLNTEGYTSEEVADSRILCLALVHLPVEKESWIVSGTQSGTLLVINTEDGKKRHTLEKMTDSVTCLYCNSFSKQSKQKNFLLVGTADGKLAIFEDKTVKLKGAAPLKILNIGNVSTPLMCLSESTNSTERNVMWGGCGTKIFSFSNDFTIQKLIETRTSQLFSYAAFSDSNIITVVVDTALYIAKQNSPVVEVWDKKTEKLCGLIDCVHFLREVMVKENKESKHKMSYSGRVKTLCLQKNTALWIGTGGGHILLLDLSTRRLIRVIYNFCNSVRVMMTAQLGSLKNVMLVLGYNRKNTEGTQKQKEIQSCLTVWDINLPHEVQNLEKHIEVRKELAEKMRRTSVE
row,IC50,SMILES
1,< 30 nM,CNc1nc(Nc2sc(C3(C#N)CC3)nc2C)ncc1C(F)(F)F [Compound 2]
2,< 30 nM,CC(C)(C(N)=O)c1nc(Cl)c(Nc2ncc(C(F)(F)F)c(NC3CC3)n2)s1 [Compound 34]
3,< 30 nM,CCNc1nc(Nc2sc(C3(C#N)CC3)nc2C)ncc1C(F)(F)F [Compound 32]
4,< 30 nM,CCNc1nc(Nc2sc(C(C)(C)C(N)=O)nc2Cl)ncc1C(F)(F)F [Compound 37]
5,< 30 nM,CCNc1nc(Nc2sc(C(=O)N3CCC(F)(F)C3)nc2C)ncc1C(F)(F)F [Compound 10]
6,< 30 nM,CCNc1nc(Nc2sc(C(=O)N3CC4CCC(C3)O4)nc2C)ncc1C(F)(F)F [Compound 33]
7,< 30 nM,"[2H]C([2H])([2H])C1(c2nc(C3CC3)c(Nc3ncc(C(F)(F)F)c(NCC)n3)s2)CCNC1=O (single isomer, unassigned) [Compound 52]"
8,< 30 nM,"[2H]C([2H])([2H])N1CCC(c2nc(Cl)c(Nc3ncc(C(F)(F)F)c(NCC)n3)s2)(C([2H])([2H])[2H])C1=O (single isomer, unassigned) [Compound 46]"
9,< 30 nM,"CNc1nc(Nc2sc(C(C)(C)C#N)nc2C)ncc1C(F)(F)F [Compound 17, 2-methyl-2-(4-methyl-5-((4-(methylamino)-5-(trifluoromethyl)pyrimidin-2-yl)amino)thiazol-2-yl)propanenitrile]"
10,< 30 nM,CCNc1nc(Nc2sc(C(C)(C)C#N)nc2Cl)ncc1C(F)(F)F [Compound 50]
11,< 30 nM,CCNc1nc(Nc2sc(C#N)nc2C)ncc1C(F)(F)F [Compound 27]
12,< 30 nM,CCNc1nc(Nc2sc(C(C)(C)C(N)=O)nc2C)ncc1C(F)(F)F [Compound 26]
13,< 30 nM,"[2H]C([2H])([2H])N1CCC(c2nc(Cl)c(Nc3ncc(C(F)(F)F)c(NCC)n3)s2)(C([2H])([2H])[2H])C1=O (single isomer, unassigned) [Compound 47]"
14,< 30 nM,Cc1nc(C(C)(C)C(N)=O)sc1Nc1ncc(C(F)(F)F)c(C2CC2)n1 [Compound 30]
15,< 30 nM,CCNc1nc(Nc2sc(C(=O)NC)nc2C)ncc1C(F)(F)F [Compound 28]
16,< 30 nM,CNc1nc(Nc2sc(C(C)(C)C(N)=O)nc2C)ncc1C(F)(F)F [Compound 22]
17,< 30 nM,"[2H]C([2H])([2H])C1(c2nc(C3CC3)c(Nc3ncc(C(F)(F)F)c(NCC)n3)s2)CCNC1=O (single isomer, unassigned) [Compound 51]"
18,< 30 nM,CCNc1nc(Nc2sc(C(=O)N3CCOCC3)nc2C)ncc1C(F)(F)F [Compound 24]
19,< 30 nM,Cc1nc(C(C)(C)C(N)=O)sc1Nc1ncc(C(F)(F)F)c(NC2CC2)n1 [Compound 29]

# More lines, now with the values behind:
row,SMILES,IC50
1,Cc1nc(C2(c3nc[nH]n3)CC2)sc1Nc1ncc(C(F)(F)F)c(C2CC2)n1 [Compound 3],< 30 nM
2,"CNc1nc(Nc2cn(C)c(C#N)c2C)ncc1C(F)(F)F [Compound 14, 1,3-dimethyl-4-((4-(methylamino)-5-(trifluoromethyl)pyrimidin-2-yl)amino)-1H-pyrrole-2-carbonitrile]",< 30 nM
3,"[2H]C([2H])([2H])C1(c2nc(Cl)c(Nc3ncc(C(F)(F)F)c(NC)n3)s2)CCNC1=O (single isomer, unassigned) [Compound 42]",< 30 nM
4,"[2H]C([2H])([2H])C1(c2nc(C3CC3)c(Nc3ncc(C(F)(F)F)c(NC)n3)s2)CCNC1=O (single isomer, unassigned) [Compound 59]",< 30 nM
5,Cc1nc(C(C)(C)c2nc[nH]n2)sc1Nc1ncc(C(F)(F)F)c(C2CC2)n1 [Compound 1],< 30 nM
6,"[2H]C([2H])([2H])C1(c2nc(Cl)c(Nc3ncc(Br)c(OC)n3)s2)CCNC1=O (single isomer, unassigned) [Compound 49]",< 30 nM
7,CC(C)(C(N)=O)c1nc(Cl)c(Nc2ncc(Br)c(NC3CC3)n2)s1 [Compound 41],< 30 nM
8,[2H]C([2H])([2H])N1CCC(c2nc(C)c(Nc3ncc(C(F)(F)F)c(NC)n3)s2)(C([2H])([2H])[2H])C1=O (stereo not shown) [Compound 23],< 30 nM
9,COc1nc(Nc2sc(C(C)(C)C(N)=O)nc2Cl)ncc1Br [Compound 39],< 30 nM
10,Cc1nc(C(C)(C)c2nnn(C)n2)sc1Nc1ncc(C(F)(F)F)c(C2CC2)n1 [Compound 31],< 30 nM
11,CC(C)(C(N)=O)c1nc(Cl)c(Nc2ncc(C(F)(F)F)c(NCC(F)F)n2)s1 [Compound 40],< 30 nM
12,"[2H]C([2H])([2H])C1(c2nc(Cl)c(Nc3ncc(Br)c(OC)n3)s2)CCNC1=O (single isomer, unassigned) [Compound 48]",< 30 nM
13,"[2H]C([2H])([2H])C1(c2nc(C3CC3)c(Nc3ncc(C(F)(F)F)c(NC)n3)s2)CCNC1=O (single isomer, unassigned) [Compound 60]",< 30 nM
14,"[2H]C([2H])([2H])N1CCC(c2nc(Cl)c(Nc3ncc(C(F)(F)F)c(NC)n3)s2)(C([2H])([2H])[2H])C1=O (single isomer, unassigned) [Compound 45]",< 30 nM
15,CCNc1nc(Nc2sc(C(C)(C)C(N)=O)nc2Cl)ncc1Br [Compound 38],< 30 nM
16,"CCNc1nc(Nc2cn(Cc3ccn(C)n3)c(C#N)c2C)ncc1C(F)(F)F [Compound 15, 4-((4-(ethylamino)-5-(trifluoromethyl)pyrimidin-2-yl)amino)-3-methyl-1-((1-methyl-1H-pyrazol-3-yl)methyl)-1H-pyrrole-2-carbonitrile]",< 30 nM
17,"[2H]C([2H])([2H])C1(c2nc(Cl)c(Nc3ncc(C(F)(F)F)c(NC)n3)s2)CCNC1=O (single isomer, unassigned) [Compound 43]",< 30 nM
18,CNc1nc(Nc2sc(C(C)(C)C(N)=O)nc2Cl)ncc1C(F)(F)F [Compound 25],< 30 nM
19,"[2H]C([2H])([2H])C1(c2nc(C3CC3)c(Nc3ncc(Br)c(OC)n3)s2)CCNC1=O (single isomer, unassigned) [Compound 54]",< 30 nM
20,"CCNc1nc(Nc2cn(S(C)(=O)=O)c(C#N)c2C)ncc1C(F)(F)F [Compound 16, 4-((4-(ethylamino)-5-(trifluoromethyl)pyrimidin-2-yl)amino)-3-methyl-1-(methylsulfonyl)-1H-pyrrole-2-carbonitrile]",< 30 nM
21,"[2H]C([2H])([2H])C1(c2nc(C3CC3)c(Nc3ncc(Br)c(OC)n3)s2)CCNC1=O (single isomer, unassigned) [Compound 53]",< 30 nM
22,"[2H]C([2H])([2H])N1CCC(c2nc(Cl)c(Nc3ncc(C(F)(F)F)c(NC)n3)s2)(C([2H])([2H])[2H])C1=O (single isomer, unassigned) [Compound 44]",< 30 nM
23,CNc1nc(Nc2sc(C(C)(C)C#N)nc2C2CC2)ncc1C(F)(F)F [Compound 61],< 30 nM
24,CNc1nc(Nc2sc(C(C)(C)C#N)nc2Cl)ncc1C(F)(F)F [Compound 36],< 30 nM
